{"source": "patent US20070048215A1", "about": "“Chemical compound and assay” (priority 2003, published 2007)", "key": {"[1]": {"target": "T1, membranes from hERG-transfected HEK cells (hERG channel) (Homo sapiens, UniProt Q12809)", "T1 construct": "expressed in transfected cells; host or cells: HEK (human embryonic kidney) cells, membrane preparation", "T1 sequence (Q12809 whole entry)": "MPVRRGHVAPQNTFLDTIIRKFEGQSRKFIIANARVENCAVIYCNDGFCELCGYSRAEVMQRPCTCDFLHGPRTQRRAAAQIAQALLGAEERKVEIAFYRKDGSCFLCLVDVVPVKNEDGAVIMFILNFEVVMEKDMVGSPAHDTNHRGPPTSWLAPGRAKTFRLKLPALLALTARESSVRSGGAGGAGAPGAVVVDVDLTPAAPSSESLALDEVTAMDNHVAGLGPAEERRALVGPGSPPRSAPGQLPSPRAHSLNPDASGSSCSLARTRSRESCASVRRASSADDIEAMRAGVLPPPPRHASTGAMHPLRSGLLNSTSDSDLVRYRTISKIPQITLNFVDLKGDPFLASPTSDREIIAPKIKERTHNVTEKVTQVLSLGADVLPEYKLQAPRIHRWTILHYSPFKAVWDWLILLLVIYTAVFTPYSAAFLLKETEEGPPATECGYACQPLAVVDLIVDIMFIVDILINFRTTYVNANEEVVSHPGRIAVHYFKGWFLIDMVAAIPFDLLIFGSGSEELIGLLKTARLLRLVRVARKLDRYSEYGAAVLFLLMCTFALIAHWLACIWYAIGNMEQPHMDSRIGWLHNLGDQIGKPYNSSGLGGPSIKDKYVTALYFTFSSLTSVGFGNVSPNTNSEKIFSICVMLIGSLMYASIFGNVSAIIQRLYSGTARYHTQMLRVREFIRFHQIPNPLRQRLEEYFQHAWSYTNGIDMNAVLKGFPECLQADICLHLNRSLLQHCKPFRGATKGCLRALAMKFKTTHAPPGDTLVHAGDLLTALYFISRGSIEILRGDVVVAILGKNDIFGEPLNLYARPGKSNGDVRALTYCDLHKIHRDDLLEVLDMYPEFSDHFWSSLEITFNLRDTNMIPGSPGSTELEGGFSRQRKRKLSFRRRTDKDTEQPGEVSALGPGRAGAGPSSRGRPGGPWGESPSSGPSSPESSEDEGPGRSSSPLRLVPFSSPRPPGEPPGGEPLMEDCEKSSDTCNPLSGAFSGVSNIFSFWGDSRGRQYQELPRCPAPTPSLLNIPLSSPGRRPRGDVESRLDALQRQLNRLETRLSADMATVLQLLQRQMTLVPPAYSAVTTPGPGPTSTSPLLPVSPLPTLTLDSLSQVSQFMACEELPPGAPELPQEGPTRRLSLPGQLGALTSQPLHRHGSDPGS", "assay": "Binding of the radioligand to membranes from hERG-transfected HEK cells (Kd, Bmax)", "conditions": "mean±SEM, n=3", "procedure": "The batch of radiolabel used in these studies has a specific activity of 2941.5 GBq/mmol (79.5 Ci/mmol) and a concentration of 20 μM. The stock radiolabel is diluted 2000-fold to 10 nM and 20 μL added per well to a final assay volume of 200 μL to give a final radioligand concentration of 1 nM."}, "[2]": {"target": "T2, hERG-transfected HEK membranes (hERG channel) (Homo sapiens, UniProt Q12809)", "T2 sequence (Q12809 whole entry)": "as above", "description": "Protocol for HERG Binding Assay\n(§1) 96-well polypropylene plates (Costar C3600)\nGF/B Plate Coating Solution\n0.3% (v/v) Polyethylenimine\n(§2) GF/B filter plates are pre-soaked in coating solution for a minimum of 20 minutes before harvesting.\n(§3) Membranes for use in the assay are prepared as follows:\n(§4) The final pellet is prepared in serum-free medium and the packed cell volume (pcv) measured.\n(§5) The cells are allowed to swell for a couple of minutes on ice then lysed using a Polytron tissue homogeniser set to 22,000 rpm. The cell suspension is held on ice and the Polytron is allowed to build up to speed, then turned off and allowed to cool for 30 seconds before repeating. Normally 3 bursts should be sufficient to completely lyse the cells. A sample is checked microscopically to ensure complete lysis and the process repeated if necessary.\n(§6) The lysed membrane solution is carefully overlaid over the 41% cushion. Any debris that may be stuck to the sides is washed out of the Polytron tube with buffer. The ultra centrifuge tube is topped up with cold buffer to completely fill the tube (this prevents the tube from collapsing during centrifugation). Centrifugation is carried out at 28,000 rpm for 1 hour @ 4° C. using a SW-28 swing-out rotor with a brake to 800 rpm.\n(§7) Membranes are seen as a white band at sucrose/buffer interphase. The top layer of the buffer is discarded and then all the membrane band is harvested with as little sucrose as possible and added to a fresh centrifuge tube. This is diluted and mixed well with at least 3 volumes of ice cold buffer containing protease inhibitor. Centrifugation is carried out at 23,000 rpm at 4° C. for 20 minutes with a break to zero.\n(§8) The supernatant is discarded and the pellet resuspended in the assay buffer+protease inhibitors on ice at 1×10^8 cell equivalents/ml. This preparation is then aliquotted and frozen to −80° C. or lower. […]\n(§9) 20 μL of 10 nM 3,7-Bis[2-(4-nitro[3,5-^3H]phenyl)ethyl]-3,7-diazabicyclo[3.3.1]nonane is added to a dry filter plate to determine the total radioactivity added to assay wells."}, "[3]": {"test_system": "cardiac rapidly activating delayed rectifier K^+ current", "conditions": "source of data: Chadwick 1993; G.Pig; cited from earlier work"}, "[4]": {"target": "T2, hERG-transfected HEK membranes (hERG channel)", "conditions": "published data of Finlayson et al.; cited from earlier work"}, "[5]": {"target": "T2, hERG-transfected HEK membranes (hERG channel)", "assay": "biochemical", "description": "Protocol for HERG Binding Assay\nas §1\nGF/B Plate Coating Solution\n0.3% (v/v) Polyethylenimine\nas §2, §3, §4, §5, §6, §7, §8, §9"}}}
{"smiles": "O=[N+]([O-])c1ccc(CCN2CC3CC(C2)CN(CCc2ccc([N+](=O)[O-])cc2)C3)cc1", "note": "[3,7-Bis[2-(4-nitro[3,5-^3H]phenyl)ethyl]-3,7-diazabicyclo[3.3.1]nonane]", "values": [{"measurement": "Kd", "setting": "[1]", "result": "0.91 ± 0.01", "unit": "nM"}]}
{"smiles": "CC(C)NC[C@@H](O)c1ccc(NS(C)(=O)=O)cc1", "note": "[d-Sotalol]", "values": [{"measurement": "pIC50, 3,7-Bis[2-(4-nitro[3,5-^3H]phenyl)ethyl]-3,7-diazabicyclo[3.3.1]nonane competition binding", "setting": "[2]", "result": 4.6}, {"measurement": "Electrophysiology pIC50", "setting": "[3]", "result": 4.1}, {"measurement": "pIC50, [^3H]-Dofetlide competition binding", "setting": "[4]", "result": 3.9}]}
{"smiles": "O=[N+]([O-])c1ccc(CCN2CC3CC(C2)CN(CCc2ccc([N+](=O)[O-])cc2)C3)cc1", "note": "[3,7-Bis[2-(4-nitrophenyl)ethyl]-3,7-diazabicyclo[3.3.1]nonane]", "values": [{"measurement": "IC50", "setting": "[5]", "result": 3.16, "unit": "nM"}]}
{"smiles": "[3H]c1cc(CCN2CC3CC(C2)CN(CCc2cc([3H])c([N+](=O)[O-])c([3H])c2)C3)cc([3H])c1[N+](=O)[O-]", "note": "[3,7-Bis[2-(4-nitro[3,5-^3H]phenyl)ethyl]-3,7-diazabicyclo[3.3.1]nonane]", "values": [{"measurement": "Bmax", "setting": "[1]", "result": "23.1±0.4", "unit": "pmol/mg protein"}]}
